# Reference: PubChem BioAssay AID1996
# Conditions: buffer; pH 7.4; 200.0 µM
row,Compound,solubility kinetic
1,N#C/C(=C\c1cccc([N+](=O)[O-])c1)c1ccccn1,3.6 µg/mL
2,CS(=O)(=O)N1CCC(C(=O)Nc2ccc(F)cc2)CC1,> 45.1 µg/mL
3,O=C1NC(=O)c2cc(Oc3ccc([N+](=O)[O-])cc3)ccc21,2.5 µg/mL
4,OC1CCN(CC(O)C(F)(F)F)CC1 (stereo not drawn),> 32 µg/mL
5,O=C(COc1ccc(Cl)cc1Cl)NC(=O)c1ccccc1,< 0.7 µg/mL
6,COc1ccc(-c2nnc(SCC(=O)N(C)C3CCS(=O)(=O)C3)n2C(C)C)cc1 (stereo not drawn),> 65.8 µg/mL
7,COc1ccc(CCNC(=O)C2Cc3ccccc3C(=O)O2)cc1 (stereo not drawn),> 48.8 µg/mL
8,COc1ccccc1CNC(=O)c1[nH]c(C)c(C(C)=O)c1C,13.3 µg/mL
9,COc1ccc(NC(=O)C2CC(=O)N(c3ccccc3C)C2)c(OC)c1 (stereo not drawn),> 53.2 µg/mL
10,CCOC(=O)C1CCN(C(=O)c2cccnc2Oc2ccccc2)CC1,50.9 µg/mL
11,COc1cc(OC)cc(C(=O)NCCCCNC(=O)c2cc(OC)cc(OC)c2)c1,1.1 µg/mL
12,COc1ccccc1C(=O)NCCC(=O)NCC(c1ccccc1)N(C)C (stereo not drawn),> 55.4 µg/mL
13,CC(C)N(Cc1ccccc1)C(=O)COC(=O)c1ccc(S(=O)(=O)N2CCOCC2)cc1,3.1 µg/mL
14,C/C(=C\c1ccccc1F)C(=O)c1c(C)cc(C)[nH]c1=O,> 42.8 µg/mL
15,Cc1csc(NC(=O)c2ccncc2)n1,17.9 µg/mL
16,O=C1NC(=O)N(c2ccccc2)C(=O)/C1=C\c1ccccc1[N+](=O)[O-],> 50.6 µg/mL
17,CC(C)(C)C1CCC(=NOC(=O)c2ccc(F)cc2)CC1 (stereo not drawn),1.3 µg/mL
18,C=CCOc1ccc(CN(C)C(=O)C2CCCO2)cc1 (stereo not drawn),> 41.3 µg/mL
19,Cc1onc(-c2ccccc2)c1C(O)c1ccc(F)cc1 (stereo not drawn),> 42.5 µg/mL
20,CCOc1ccccc1NC(=O)CN1CCCCCC1.Cl,32.9 µg/mL
21,O=C(CCc1nnc(-c2ccccc2)o1)NC1CCCCC1,> 44.9 µg/mL
22,COc1cc2c(cc1OC)CN(C(=O)c1ccc(Cl)c(S(=O)(=O)N3CCCC3)c1)CC2,> 69.7 µg/mL
23,CC1CCCCC1NC(=O)CCCN1C(=O)c2ccccc2C1=O (stereo not drawn),15.9 µg/mL
24,CC1Cc2ccccc2N1CC(=O)NC(=O)NC(C)(C)C (stereo not drawn),30.7 µg/mL

row,Compound,solubility kinetic
1,COc1ccc(C2(C)NC(=O)N(CC(=O)N(c3ccccc3)C3CCS(=O)(=O)C3)C2=O)cc1 (stereo not drawn),52.8 µg/mL
2,O=C(OCc1ccc([N+](=O)[O-])cc1)c1cc2ccccc2oc1=O,< 0.7 µg/mL
3,CCOC(=O)Cc1csc(NC(=O)Cc2ccc(C)cc2)n1,45.2 µg/mL
4,FC(F)(F)c1cccc(CNC2CCN(Cc3ccccc3)CC2)c1,38.6 µg/mL
5,COc1ccccc1C(=O)c1c(C)c(CCC#N)n2ccccc12,40.6 µg/mL
6,COc1ccc(S(=O)(=O)N2CCOc3ccccc32)cc1,17.6 µg/mL
7,O=C(COC(=O)c1ccc2ncsc2c1)Nc1ccc(OC(F)(F)F)cc1,4.4 µg/mL
8,O=C(CNC(=O)c1ccco1)OCc1ccccc1F,> 41.6 µg/mL
9,c1coc(CSc2ncnc3c2oc2ccccc23)c1,0.9 µg/mL
10,CCc1ncc(/C=C2\C(=O)Nc3ccccc32)[nH]1,6.7 µg/mL
11,c1ccc(Oc2nc(-c3ccccn3)nc3ccccc23)cc1,43.1 µg/mL
12,O=C1CC(c2ccco2)Sc2ccccc2N1 (stereo not drawn),> 36.8 µg/mL
13,COc1ccc(OC)c(NC(=O)N2CCCc3ccccc32)c1,1.7 µg/mL
14,O=C(NCc1ccc(F)cc1)c1cccs1,29.9 µg/mL
15,CC1=CC2=NC(=O)/C(=C/c3cccn3Cc3ccccc3)C(=N)N2O1,2.7 µg/mL
16,Cc1cccc(CC(=O)NCC2CCCCC2)c1,> 36.8 µg/mL
17,CCCCCn1c(N2CCCC2)nc2c1c(=O)n(C)c(=O)n2C,> 47.9 µg/mL
18,CN1CCN(S(=O)(=O)Cc2ccccc2Cl)CC1,> 43.3 µg/mL
19,CC(C)(C)Nc1nc(Cl)nc(NCc2ccccc2)n1,8 µg/mL
20,Cc1ccc2c(C)c(C(=O)NCCc3ccco3)oc2c1C,2.8 µg/mL
21,Cc1csc(CN(C)C(=O)C2CCC(=O)N(CCN(C)C)C2)n1 (stereo not drawn),32.9 µg/mL
22,O=C(CN1C(=O)c2ccccc2C1=O)Oc1ccc(Cl)cc1,28 µg/mL
23,Cn1c(-c2cccc([N+](=O)[O-])c2)[n+](C)c2ccccc21.[Cl-],> 45.6 µg/mL
24,O=C(CCCn1c(=O)[nH]c2ccccc2c1=O)Nc1ccc(F)cc1,7.7 µg/mL

row,Compound,solubility kinetic
1,Cc1ccc(C(=O)NC2CCCCNC2=O)cc1 (stereo not drawn),33.3 µg/mL
2,Cc1csc(NC(=O)Cc2c(F)cccc2Cl)n1,36.4 µg/mL
3,Cc1ccc2c(c1)C(=O)OC1(O)C3C4C=CC(C4)C3C(=O)N21 (stereo not drawn),> 44.6 µg/mL
4,O=C1COc2ccc(N3C(=O)c4ccccc4C3=O)cc2N1,1.9 µg/mL
5,CC1CCCCN1C(=S)NC(=O)c1ccccc1 (stereo not drawn),> 39.4 µg/mL
6,Cc1cccc(Nc2ncccc2C(=O)O)c1C,> 36.3 µg/mL
7,O=C(Nc1ccnc(-c2ccncc2)n1)c1ccc(F)cc1,0.4 µg/mL
8,CCOC(=O)c1cnc(-c2ccccc2)nc1C(F)(F)F,< 0.3 µg/mL
9,CCc1nc(C(N)=O)c2[nH]c(=O)n(-c3ccccc3F)c2n1,10.2 µg/mL
10,CCn1c(SCC(=O)NC2CCCC2)nnc1-c1ccco1,> 48.1 µg/mL
11,C[C@H](NC(=O)c1ccccc1)C(=O)OCC(=O)Nc1sccc1C(N)=O,> 56.3 µg/mL
12,COc1ccccc1NC(=O)c1c(C)nc2ccccc2c1C(=O)O,> 50.5 µg/mL
13,Cc1noc(C)c1COC(=O)[C@@H](NC(=O)c1ccccc1)C(C)C,> 49.6 µg/mL
14,CS(=O)(=O)/C(C#N)=C/c1c(-c2ccccc2)nc2n1CCS2,2.4 µg/mL
15,Cc1nonc1NC(=O)c1oc2ccc(F)cc2c1C,0.7 µg/mL
16,CC(C)CC(=O)Nc1ccc2c(c1)nc(CCN1CCOCC1)n2C,> 51.7 µg/mL
17,COc1cc(C(=O)NC(C)C2CC3CCC2C3)cc(OC)c1OC (stereo not drawn),9.8 µg/mL
18,Cc1ccc(C(=O)CCC(=O)NC2CCCC(C)C2C)cc1 (stereo not drawn),17.4 µg/mL
19,Cc1ccc(OCC(O)CN2CCOCC2)cc1C.Cl (stereo not drawn),> 45.3 µg/mL
20,O=S(=O)(Nc1ccccc1Br)c1cccs1,> 47.7 µg/mL
21,O=C(O)c1cccc(NC(=O)c2ccccc2NC(=O)c2cccc([N+](=O)[O-])c2)c1,48.3 µg/mL
22,Cc1ccc2oc(C(=O)N3CCN(CCO)CC3)c(C)c2c1,> 45.4 µg/mL
23,CC1CCCCC1NC(=O)CSc1nc2ccccc2[nH]1 (stereo not drawn),37.5 µg/mL
24,O=C(O)C1CC(O)CN1C(=S)Nc1ccccc1 (stereo not drawn),> 39.9 µg/mL

row,Compound,solubility kinetic
1,CN(Cc1cccs1)C(=O)CNC(=O)c1ccco1,> 41.7 µg/mL
2,CCOc1ccccc1Nc1cc(C)c2cccc(C)c2n1,0.5 µg/mL
3,CC1(C)CC(=O)c2sc(NC(=O)c3ccccc3)nc2C1,22.6 µg/mL
4,O=[N+]([O-])c1cc(S(=O)(=O)N2CCOCC2)ccc1NS(=O)(=O)c1ccccc1,> 64.1 µg/mL
5,O=C(Nc1cccc2ccccc12)c1ccc([N+](=O)[O-])cc1,1 µg/mL
6,COc1ccccc1CNc1ncnc2cc(OC)c(OC)cc12,13 µg/mL
7,N#Cc1ccc(NC(=O)Cn2cnc([N+](=O)[O-])c2)cc1,37.4 µg/mL
8,Cc1nc(C(=O)N2CCCC(C(=O)c3ccc(Cl)cc3)C2)cs1 (stereo not drawn),> 52.3 µg/mL
9,COc1ccccc1NC(=S)N1CCCc2ccccc21,22.9 µg/mL
10,Cn1cccc1/C=N/NC(=O)Cc1cccs1,> 37.1 µg/mL
11,CN(C)CCNC(=O)c1ccccc1-c1cc2ccccc2c(=O)o1,> 50.5 µg/mL
12,Cc1ccc(NC(=O)CC2(CC(=O)O)CCCC2)cc1,> 41.3 µg/mL
13,COc1ccc(C(=O)CC(=O)C(=O)Nc2ccccc2OC)cc1,16.2 µg/mL
14,COC(=O)C1Cc2ccccc2CN1S(=O)(=O)c1ccc(C)cc1 (stereo not drawn),19.6 µg/mL
15,CC(=O)Nc1cc([As](=O)(O)O)ccc1O,> 41.3 µg/mL
16,NCCNC[C@@H]1COC2(CCCCCCCCCCC2)O1,32.7 µg/mL
17,C1=C(c2ccccc2)CCNC1.Cl,24.9 µg/mL
18,Cc1cccc(C(=O)N/C(=C\c2ccc(C)o2)C(=O)O)c1,> 42.8 µg/mL
19,Cc1nc(C)c(C(=O)NCCC(c2ccccc2)c2ccccc2)o1,43.8 µg/mL
20,COc1cc(OC)cc(C(=O)NCCCCc2ccccc2)c1,1.3 µg/mL
21,Cc1cccc(NC2=NCCCS2)c1,> 30.9 µg/mL
22,CN(C)Cc1c(O)ccc2c(=O)c(-c3ccccc3Cl)coc12,> 49.5 µg/mL
23,CCn1c(N2CCN(C(=O)c3ccco3)CC2)nc2ccccc21,35.8 µg/mL
24,CCOc1cc(C)c(S(=O)(=O)NCc2ccccn2)cc1C,> 48.1 µg/mL

row,Compound,solubility kinetic
1,CN(C)CC/C=C1/c2cc(F)ccc2Sc2ccc(Cl)cc21.Cl,32.8 µg/mL
2,CCOc1ccc(NC(=O)CCc2ccc(C)o2)cc1,10.5 µg/mL
3,COc1cc(/C=C2\SC(N)=NC2=O)ccc1O,34.5 µg/mL
4,O=C(COC(=O)c1ccc(S(=O)(=O)NCc2ccco2)cc1)NCc1ccccc1,7.4 µg/mL
5,Cc1ccc2c(C)cc(=S)[nH]c2c1,7.1 µg/mL
6,O=C(O)/C=C/C(=O)Nc1ccc(N2CCOCC2)nc1N1CCOCC1,> 54.4 µg/mL
7,CC1(C)CC(NS(=O)(=O)c2ccc(Cl)cc2)CC(C)(C)N1,> 49.6 µg/mL
8,COc1cc(CC(=O)N(CC(C)C)C2CCS(=O)(=O)C2)cc(OC)c1OC (stereo not drawn),> 59.9 µg/mL
9,CCN(C(=O)COC(=O)c1cccnc1)c1cccc2ccccc12,> 50.2 µg/mL
10,O=C(COC(=O)c1ccc([N+](=O)[O-])cc1)NC12CC3CC(CC(C3)C1)C2,3.3 µg/mL
11,COc1ccccc1NC(=O)Nc1ccc2c(c1)nc(C)n2C,5.7 µg/mL
12,CCCc1c(C)[nH]c2nc3ccccc3n2c1=O,3.6 µg/mL
13,CCN(CC(=O)NC1CC1)S(=O)(=O)c1ccc(OC)cc1,> 46.9 µg/mL
14,CCCOc1ccc(NC(=O)CC2Nc3ccccc3NC2=O)cc1 (stereo not drawn),2.7 µg/mL
15,O=C(CN1CCOCC1)Nc1nc2ccc(Cl)cc2s1,45.8 µg/mL
16,COc1cc(N)c(Cl)cc1C(=O)OCC(=O)NCC1CCCO1 (stereo not drawn),> 51.4 µg/mL
17,CCc1c(C)nc(SCC(=O)NC2CCCC2)[nH]c1=O,> 44.3 µg/mL
18,Cc1cccc(C)c1NC(=O)C1CSC2(C)CCC(=O)N12 (stereo not drawn),> 45.7 µg/mL
19,CCCCc1nc2cc(C(=O)NCc3cn(C)nc3C)ccc2o1,> 49 µg/mL
20,Cc1ccc(NC(=O)CN2C(=O)c3ccccc3S2(=O)=O)c(C)c1,2.7 µg/mL
21,COc1cc(C(=O)OCC(=O)Nc2ccc(S(=O)(=O)N3CCCC3)cc2)cc(OC)c1OC,18.1 µg/mL
22,Cc1ccc(O)c(NC(=O)c2cc(-c3ccco3)on2)c1,1.2 µg/mL
